Values quoted from earlier work, collected in patent publication US12037346B2, “Amino-substituted heteroaryls for treating cancers with EGFR mutations” (Nuvalent, Inc., priority 2021, dated 2024).

Target: HER2 (Homo sapiens, UniProt P04626)
Conditions: cited from earlier work

Chain of HER2 (P04626 23-1255): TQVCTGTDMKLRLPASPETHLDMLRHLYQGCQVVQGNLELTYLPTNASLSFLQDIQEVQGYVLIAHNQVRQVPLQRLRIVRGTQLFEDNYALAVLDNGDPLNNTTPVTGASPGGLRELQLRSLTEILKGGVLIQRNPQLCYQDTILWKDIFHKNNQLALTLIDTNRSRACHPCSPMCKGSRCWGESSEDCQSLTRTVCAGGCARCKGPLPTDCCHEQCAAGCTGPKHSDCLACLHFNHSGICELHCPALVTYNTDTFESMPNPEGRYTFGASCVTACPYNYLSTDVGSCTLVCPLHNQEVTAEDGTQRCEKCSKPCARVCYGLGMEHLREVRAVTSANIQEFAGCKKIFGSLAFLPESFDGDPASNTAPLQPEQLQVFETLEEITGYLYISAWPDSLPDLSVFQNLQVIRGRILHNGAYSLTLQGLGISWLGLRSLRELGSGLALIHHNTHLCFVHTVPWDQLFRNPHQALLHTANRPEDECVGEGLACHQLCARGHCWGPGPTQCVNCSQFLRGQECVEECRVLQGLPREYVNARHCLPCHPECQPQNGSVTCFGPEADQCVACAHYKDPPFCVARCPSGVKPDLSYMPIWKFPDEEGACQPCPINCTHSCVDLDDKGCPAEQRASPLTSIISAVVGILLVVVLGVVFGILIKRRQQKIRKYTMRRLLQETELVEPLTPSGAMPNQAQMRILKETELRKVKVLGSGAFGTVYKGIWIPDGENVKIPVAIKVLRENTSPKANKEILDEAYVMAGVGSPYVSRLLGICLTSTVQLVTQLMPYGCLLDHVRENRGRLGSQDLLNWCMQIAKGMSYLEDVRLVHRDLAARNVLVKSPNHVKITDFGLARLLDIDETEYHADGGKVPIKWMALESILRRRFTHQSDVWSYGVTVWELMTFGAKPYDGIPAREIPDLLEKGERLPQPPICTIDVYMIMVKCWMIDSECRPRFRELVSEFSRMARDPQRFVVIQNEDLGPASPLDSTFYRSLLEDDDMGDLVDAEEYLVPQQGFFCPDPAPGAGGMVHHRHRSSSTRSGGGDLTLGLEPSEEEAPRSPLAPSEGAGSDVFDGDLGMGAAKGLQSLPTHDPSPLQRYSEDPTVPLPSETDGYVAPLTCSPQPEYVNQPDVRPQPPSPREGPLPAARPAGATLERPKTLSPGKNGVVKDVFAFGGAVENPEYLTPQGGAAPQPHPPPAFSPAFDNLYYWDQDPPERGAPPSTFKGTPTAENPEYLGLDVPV

## Cc1cc(Nc2ncnc3ccc(NC4=NC(C)(C)CO4)cc23)ccc1Oc1ccn2ncnc2c1 [Tucatinib]
Compared to placebo (5.6 months)
  median progression free survival: 7.8 months
Compared to placebo (17.4 months)
  median overall survival: 21.9 months
Compared to placebo (23%)
  objective response rate: 41%
